Assay results published in PMC2747815 (Journal of immunotherapy (Hagerstown, Md. : 1997), 2009).

Experiments:
[1] = test system: LN cells of TRP1-/-//DR4+ (KO) and TRP1+/-//DR4+ (WT) mice, antigen pulsed onto DR4+ 1088 EBV-B; test: Ex vivo IFN-γ ELISPOT of LN cells from hTRP-1-immunized KO and WT mice; type: cell-based, mouse; settings: for T cell frequency by ex vivo IFN-γ ELISPOT titration (mean): peptide 100 μM, Fig. 2D; for ex vivo ELISPOT reactivity, KO-derived compared with WT-derived CD4+ T cells: peptide 100 μM or protein 50 μg/ml pulsed onto 1088 EBV-B, 24 hours
HLA-DR4 (HLA-DRB1*0401) = HLA-DR4 (HLA-DRB1*0401) (Homo sapiens, UniProt P01903+P01911, A100K/A169T/F76Y/I96L/K127E/L162R/M171V/N62H/P40V/Q125Y/R42H/S133A/S149N/S66Y/V115G/V209L/W38E); settings: competitive binding assay, purified class II, 48h in PBS with NP40; Fig. 1B
[2] = test system: LN cells of DR4 Tg mice, antigen pulsed onto DR4+ 1088 EBV-B; test: IFN-γ ELISA of expanded LN T cells from mTRP-1-immunized DR4 Tg mice; type: cell-based, mouse; settings: protein pulsed onto DR4+ 1088 EBV-B at 25 μg/ml; compared with mTRP-1 protein

Row | Molecule | T cell frequency by ex vivo IFN-γ ELISPOT titration (mean) ([1]; TRP1+/-//DR4+ (WT) LN cells) | T cell frequency by ex vivo IFN-γ ELISPOT titration (mean) ([1]; TRP1-/-//DR4+ (KO) LN cells) | relative affinity (IC50), human variant compared with murine counterpart (HLA-DR4 (HLA-DRB1*0401)) | ex vivo ELISPOT reactivity, KO-derived compared with WT-derived CD4+ T cells [1] | specific IFN-γ secretion by ELISA, protein [2]
1 | hTRP-1_277-297: HLA-DRB1*0401-restricted epitope from human TRP-1, positions 277-297 (ISPNSVFSQWRVVCDSLEDYD; UniProt P17643 277-297, looked up, fragment) | 158 | 163 | nearly three times less |  | 
2 | hTRP-1 protein: recombinant human TRP-1 protein |  |  |  | significantly greater | superior
3 | mTRP-1 protein: recombinant murine TRP-1 protein |  |  |  | significantly greater | 
4 | OVA: recombinant full-length OVA protein purchased from Sigma, control protein (protein, UniProt P01012 1-386, looked up, full-length) MGSIGAASMEFCFDVFKELKVHHANENIFYCPIAIMSALAMVYLGAKDSTRTQINKVVRFDKLPGFGDSIEAQCGTSVNVHSSLRDILNQITKPNDVYSFSLASRLYAEERYPILPEYLQCVKELYRGGLEPINFQTAADQARELINSWVESQTNGIIRNVLQPSSVDSQTAMVLVNAIVFKGLWEKAFKDEDTQAMPFRVTEQESKPVQMMYQIGLFRVASMASEKMKILELPFASGTMSMLVLLPDEVSGLEQLESIINFEKLTEWTSSNVMEERKIKVYLPRMKMEEKYNLTSVLMAMGITDVFSSSANLSGISSAESLKISQAVHAAHAEINEAGREVVGSAEAGVDAASVSEEFRADHPFLFCIKHIATNAVLFFGRCVSP |  |  |  |  | No significant immune response
